Results reported in patent publication US11266644B2, “Pharmaceutical composition for preventing and treating diabetic nephropaphy including adenosine derivative” (FUTURE MEDICINE CO., LTD., priority 2017, dated 2022).

Key:
db/db diabetic mice [1] = test: Type 2 diabetic renal damage, db/db mice, comparison with Losartan (Experimental Example 2); format: in vivo; conditions: oral, daily 12 weeks, Formula B 10 mg/kg; for glomerular filtration rate decrease / glomerular hypertrophy / proteinuria / tubular injury: Losartan 1.5 mg/kg (FIG. 4-6); for renal fibrosis: Losartan 1.5 mg/kg (FIG. 7, 8); for inflammation response: Losartan 1.5 mg/kg (FIG. 9, 10); for oxidative stress: Losartan 1.5 mg/kg (FIG. 11, 12); for lipid accumulation: Losartan 1.5 mg/kg (FIG. 13, 14)
Protocol: In order to compare the therapeutic efficacy between the adenosine derivative of the present invention and Losartan, which is used for alleviating the symptoms of diabetic kidney disease, the following animal experiments were performed.
The compound of Chemical Formula B and rosartan were oral administered at a dose of 10 mg/kg and 1.5 mg/kg to 8-week-old normal db/m mice in which diabetes were not induced and 8-week-old db/db diaetic mice in which diabetes were induced, respectively for 12 weeks daily. The kidneys of the solvent control group and the drug administration group were extracted to observe the histological changes of the glomeruli and the changes in the indicators for renal damage such as proteinuria, glomerular filtration rate reduction, tubular injury, glomerular hypertrophy, renal fibrosis, inflammatory response, oxidative stress and lipid accumulation were compared.
(§1) The morphological analysis of kidney including glomeruli was performed by PAS staining of kidney tissues followed by random selection of each 50, quantification by an image analyzer and statistics, and urinary albumin and LPO were analyzed by electrophoresis and ELISA (Enzyme-Linked ImmunoSorbent Assay) and mRNA expression was analyzed by real time PCR.
Glomerular filtration rate was calculated by measuring blood and urine creatinine using the Jaffe method and changes in kidney protein were measured by western blot, ELISA and immunohistochemistry.
In FIG. 4 to FIG. 14, db/m and db/db represent the mice to which the solvent (0.25% CMC) used in administering the compound of Chemical Formula B was administered, respectively, and db/m+LJ2698 and db/db+LJ2698 represent normal mice and diabetic mice to which the compound of Chemical Formula B is administered for 12 weeks, respectively. db/db+Losartan represents diabetic mice to which Losartan was administered for 12 weeks.

db/db diabetic mice [2] = test: Type 2 diabetic renal damage, db/db mice, dose-dependency (Experimental Example 1); format: in vivo; conditions: db/db mice, 1.5, 5 and 10 mg/kg
Protocol: The following animal experiments were performed to examine the inhibitory effect of the adenosine derivatives of the present invention on renal damage in the type 2 diabetes model.
After 12 weeks of the administration, kidneys of the solvent control group and the test substance administration group were extracted to observe the histological changes of the glomeruli and the levels of urinary albumin and LPO (lipid peroxide) or the amount of mRNA expression for nephrin, NGAL, TGF-β, collagen IV, fibronectin, MCP-1 and ICAM-1 was set as an index for renal damage and the protective effect for kidney was measured. Db/m mice in which diabetes were not induced, were added as a control group and only a solvent was administered to observe and measure the above items.
Of these indices, urinary albumin level means proteinuria, nephrin reduction means podocyte injury, NGAL increase means tubular injury, TGF-β increase means fibrosis, inflammatory cytokine (MCP-1, ICAM-1) increase means Inflammatory response and LPO values indicate oxidative stress.
as §1, with “of” for “of kidney including”, “PAS (Periodic Acid Schiff)” for “PAS”
In FIG. 2 and FIG. 3, db/m represents normal mice, db/db represents diabetic mice administered with only solvent (0.25% CMC) and db/db+LJ2698 (1.5 mg/kg), db/db+LJ2698 (5 mg/kg) and db/db+LJ2698 (10 mg/kg) represent diabetic mice in which the compound of Chemical Formula B is administered at 1.5, 5 and 10 mg/kg, respectively, for 12 weeks daily.

[3] = tested on: mice in which type 1 diabetes was induced (STZ); test: Type 1 diabetic renal damage, streptozotocin-induced diabetic mice (Experimental Example 3); format: in vivo; conditions: daily 12 weeks, Formula B 10 mg/kg
Protocol: The following animal experiments were performed to examine the inhibitory effect on the kidney injury by administering the adenosine derivative of the present invention to an animal model of type 1 diabetes.
After streptozotocin (STZ) was administered to normal mice for 5 days to induce type 1 diabetes, the mice have been classified into, a group in which 10 mg/kg compound of Chemical Formula B was administered daily, a group in which 1.5 mg/kg of LC158809, a type of ARB, was administered daily, and a group in which 10 mg/kg compound of Chemical Formula B and 1.5 mg/kg of LC158809 were co-administered daily, then all groups were given total of 12 weeks administration.
Kidney function and histologic changes of the kidney and the like were examined for normal mice to which streptozotocin was not administered, diabetic mice to which the only solvent was administered after 12 weeks of streptozotocin administration and diabetic mice to which test substance was administered after 12 weeks of streptozotocin administration.
FIG. 15 to FIG. 17 are graphs showing the results of measuring the levels of urinary albumin, nephrin and 8-isoprostan according to the above-mentioned experiment. Urine albumin, nephrin and 8-isoprostanone levels were measured as indicators of proteinuria, glomerular podocyte damage and oxidative stress, respectively.
In FIG. 15 to FIG. 19, Control and STZ represent normal mice and mice in which type 1 diabetes was induced, and STZ+ARB, STZ+LJ2698 and STZ+ARB+LJ2698 represent diabetic mice in which […] and the compound of Chemical Formula B+LC158809 (co-administration) were administered for 12 weeks, respectively.

[4] = tested on: mice-derived glomerular podocyte; test: Inflammation and fibrosis response in cultured glomerular podocytes (Experimental Example 4); format: cell-based; conditions: induced with high glucose, angiotensin II and free fatty acids (FIG. 20)
Protocol: (§2) In order to examine the anti-inflammatory and anti-fibrotic effects of the adenosine derivatives of the present invention on cultured cells, the following in vitro experiments were performed.

[5] = tested on: mice-derived tubular epithelial cells; test: Inflammation and fibrosis response in cultured tubular epithelial cells (Experimental Example 4); format: cell-based; conditions: induced with high glucose, angiotensin II and free fatty acids (FIG. 20)
Protocol: as §2

[6] = LC158809 1.5 mg/kg (FIG. 18, 19)

CCCCc1nc(Cl)c(CO)n1Cc1ccc(-c2ccccc2-c2nn[nH]n2)cc1 [Losartan, (2-butyl-4-chloro-1-{[2′-(1H-tetrazol-5-yl)biphenyl-4-yl]methyl}-1H-imidazol-5-yl}methanol, reference compound]
glomerular filtration rate decrease (db/db diabetic mice [1]): similar | glomerular hypertrophy (db/db diabetic mice [1]): similar | proteinuria (db/db diabetic mice [1]): similar | tubular injury (db/db diabetic mice [1]): similar | renal fibrosis (db/db diabetic mice [1]): inhibited to a similar level | inflammation response (db/db diabetic mice [1]): inhibited to a similar level | oxidative stress (db/db diabetic mice [1]): inhibited to a similar level | lipid accumulation (db/db diabetic mice [1]): inhibited to a similar level

O[C@@H]1[C@H](O)CS[C@H]1n1cnc2c(NCc3cccc(Cl)c3)nc(Cl)nc21 [compound of Chemical Formula B, (2R,3R,4S)-2-(2-chloro-6-(3-chlorobenzylamino)-9H-purin-9-yl)tetrahydrothiophene-3,4-diol]
vasodilation (glomerular mesangium) (db/db diabetic mice [2]; 12 weeks (FIG. 1, 2)): significantly inhibited | urinary albumin levels (proteinuria) (db/db diabetic mice [2]; 12 weeks (FIG. 3)): inhibited dependently on dose | glomerular hypertrophy (db/db diabetic mice [2]; 12 weeks, PAS staining (FIG. 1, 2)): significantly inhibited | NGAL (tubular injury indicator) (db/db diabetic mice [2]; 12 weeks, mRNA (FIG. 3)): inhibited dependently on dose | TGF-β (fibrosis indicator) (db/db diabetic mice [2]; 12 weeks, mRNA (FIG. 3)): inhibited dependently on dose | collagen IV (db/db diabetic mice [2]; 12 weeks, mRNA (FIG. 3)): inhibited dependently on dose | nephrin (podocyte injury indicator) (db/db diabetic mice [2]; 12 weeks, mRNA (FIG. 3)): inhibited dependently on dose | glomerular filtration rate decrease (db/db diabetic mice [1]): inhibited | glomerular hypertrophy (db/db diabetic mice [1]): inhibited | proteinuria (db/db diabetic mice [1]): inhibited | tubular injury (db/db diabetic mice [1]): inhibited | renal fibrosis (db/db diabetic mice [1]): inhibited to a similar level | inflammation response (db/db diabetic mice [1]): inhibited to a similar level | oxidative stress (db/db diabetic mice [1]): inhibited to a similar level | lipid accumulation (db/db diabetic mice [1]): inhibited to a similar level | urinary nephrin (glomerular podocyte damage) ([3]; LC158809 1.5 mg/kg (FIG. 16)): significantly reduced | fibrosis of the kidney [3, 6]: significantly reduced | inflammation of the kidney [3, 6]: significantly reduced | urinary albumin (proteinuria) ([3]; LC158809 1.5 mg/kg, alone or co-administered (FIG. 15)): significantly reduced | urinary 8-isoprostanone (oxidative stress) ([3]; LC158809 1.5 mg/kg, alone or co-administered (FIG. 17)): significantly reduced | anti-fibrosis effect (collagen IV) [4]: anti-fibrosis | anti-inflammatory effect (Nephrin, MCP-1) [4]: anti-inflammatory effect | antioxidant effect (NOX4) [4]: antioxidant | anti-fibrosis effect (collagen IV) [5]: anti-fibrosis | anti-inflammatory effect (Nephrin, MCP-1) [5]: anti-inflammatory effect | antioxidant effect (NOX4) [5]: antioxidant
